In ChEMBL document CHEMBL1201862, “PubChem BioAssay data set” (2004):
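Values below derive from 48-hour exposures of cells grown in 96-well plates, with endpoints linearly interpolated between the two concentrations bracketing the appropriate inhibition level. At the GI50, growth is halved.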 Activity calls are given as the source filed them. No stated cut-off is given here; in the data, active = GI50 up to about 1.1 µM and inactive = higher.

How the values were obtained:
Assay in all cases: NCI anticancer screen, dose series, 48 h
HCC 2998 = tested on: HCC 2998
MDA-N = tested on: MDA-N
Malme-3M = tested on: Malme-3M
MCF7 = tested on: MCF7
MDA-MB-435 = tested on: MDA-MB-435
LOX IMVI = tested on: LOX IMVI
NCI-H226 = tested on: NCI-H226
SW-620 = tested on: SW-620
PC-3 = tested on: PC-3
NCI-H460 = tested on: NCI-H460
SNB-19 = tested on: SNB-19
M14 = tested on: M14
SK-MEL-28 = tested on: SK-MEL-28
HOP-62 = tested on: HOP-62
IGROV-1 = tested on: IGROV-1
A498 = tested on: A498
SN12C = tested on: SN12C
U-251 = tested on: U-251
ACHN = tested on: ACHN
T47D = tested on: T47D

Structure (SMILES)	GI50 (HCC 2998)	GI50 (MDA-N)	GI50 (Malme-3M)	GI50 (MCF7)	GI50 (MDA-MB-435)	GI50 (LOX IMVI)	GI50 (NCI-H226)	GI50 (SW-620)	GI50 (PC-3)	GI50 (NCI-H460)	GI50 (SNB-19)	GI50 (M14)	GI50 (SK-MEL-28)	GI50 (HOP-62)	GI50 (IGROV-1)	GI50 (A498)	GI50 (SN12C)	GI50 (U-251)	GI50 (ACHN)	GI50 (T47D)
O=C1c2cccnc2-c2nccc3c2c1nc1cc(Br)ccc13	0.406 µM (active)	0.225 µM (active)	0.108 µM (active)	< 0.0366 µM (active)	0.198 µM (active)	0.0533 µM (active)	0.216 µM (active)	< 0.0264 µM (active)	0.275 µM (active)	0.138 µM (active)	0.27 µM (active)	0.0553 µM (active)	0.0843 µM (active)	0.155 µM (active)	0.14 µM (active)	0.0196 µM (active)	0.101 µM (active)	0.0843 µM (active)	0.208 µM (active)	0.0883 µM (active)
O=C1C(CO)=C(CO)C(=O)c2c(O)ccc(O)c21	2.06 µM (inactive)	0.236 µM (active)	0.217 µM (active)	0.118 µM (active)	0.472 µM (active)	0.252 µM (active)	2.15 µM (inactive)	0.082 µM (active)	1.97 µM (inactive)	0.923 µM (active)	2.88 µM (inactive)	0.143 µM (active)	0.391 µM (active)	1.04 µM (active)	1.68 µM (inactive)	1.69 µM (inactive)	0.287 µM (active)	2.22 µM (inactive)	0.337 µM (active)	0.363 µM (active)
NC(=O)C(=CNC(N)=S)C(N)=O	> 100 µM (inactive)	> 100 µM (inactive)	> 100 µM (inactive)	> 100 µM (inactive)	> 100 µM (inactive)	> 100 µM (inactive)	> 100 µM (inactive)	> 100 µM (inactive)	> 100 µM (inactive)	> 100 µM (inactive)	> 100 µM (inactive)	> 100 µM (inactive)	> 100 µM (inactive)	> 100 µM (inactive)	> 100 µM (inactive)	> 100 µM (inactive)	> 100 µM (inactive)	> 100 µM (inactive)	> 100 µM (inactive)	> 100 µM (inactive)
COC(=O)c1c(C)[nH]c2c1C(=O)C(=O)c1nc(C)c(C)nc1-2	8.85 µM (inactive)	5.37 µM (inactive)	3.58 µM (inactive)	7.48 µM (inactive)	10.7 µM (inactive)	5.79 µM (inactive)	11.8 µM (inactive)	10.8 µM (inactive)	7.53 µM (inactive)	5.27 µM (inactive)	4.76 µM (inactive)	10.7 µM (inactive)	11.1 µM (inactive)	5.98 µM (inactive)	3.41 µM (inactive)	2.92 µM (inactive)	2.84 µM (inactive)	4.84 µM (inactive)	2.85 µM (inactive)	0.162 µM (active)
O=C1OC2C=CCC1C2 (stereo not given)	> 100 µM (inactive)	> 100 µM (inactive)	> 100 µM (inactive)	> 100 µM (inactive)	> 100 µM (inactive)	> 100 µM (inactive)	> 100 µM (inactive)	> 100 µM (inactive)	> 100 µM (inactive)	> 100 µM (inactive)	> 100 µM (inactive)	> 100 µM (inactive)	> 100 µM (inactive)	> 100 µM (inactive)	> 100 µM (inactive)	> 100 µM (inactive)	> 100 µM (inactive)	> 100 µM (inactive)	> 100 µM (inactive)	> 100 µM (inactive)
COC(=O)OC[C@H]1O[C@@H](n2cc(C)c(=O)[nH]c2=O)CC1OC(=O)OC (stereo not given in full)	> 100 µM (inactive)	> 100 µM (inactive)	> 100 µM (inactive)	> 100 µM (inactive)	> 100 µM (inactive)	> 100 µM (inactive)	> 100 µM (inactive)	> 100 µM (inactive)	> 100 µM (inactive)	> 100 µM (inactive)	> 100 µM (inactive)	> 100 µM (inactive)	> 100 µM (inactive)	> 100 µM (inactive)	> 100 µM (inactive)	> 100 µM (inactive)	> 100 µM (inactive)	> 100 µM (inactive)	> 100 µM (inactive)	> 100 µM (inactive)
